# Laboratory results: patent US9447068B2, “Functionalized polymer compositions” (Novus International Inc., priority 2012, dated 2016)
# Test system: Ross 708 male broilers
# Assay: In vivo efficacy study in chickens: methionine source in methionine-deficient diet
# Conditions: young broilers, 0 to 14 days of age, 0.15% added methionine, diet deficient in methionine (0.26%)
# Protocol: HMTBA homopolymer was compared to HMTBA calcium salt (MHA) in young broilers chicks as methionine source with a diet deficient in dietary methionine (0.26%) as negative control. A total of 108 Ross 708 male broilers were randomly assigned to 18 battery pens with 6 birds per pen. Six replicate pens were fed one of the 3 test diets from 0 to 14 days of age. HMTBA and MHA were added at equal molar basis to provide 0.15% added methionine. Growth performance parameters including body weight, feed conversion ratio (FCR), feed intake, and mortality, were measured and the body weight and FCR results are shown in FIG. 4.
smiles,measurement,value
"CSCCC(O)C(=O)[O-].CSCCC(O)C(=O)[O-].[Ca+2] (stereo not shown) [MHA, HMTBA calcium salt]",body weight,significantly increased
same,feed conversion ratio (FCR),significantly improved
same,performance index,significantly increased
same,weight gain,significantly increased
